# Measurements taken from PubChem BioAssay AID1238 (The Scripps Research Institute Molecular Screening Center, 2008).
# Active and inactive are the calls of the source. The rule behind the calls is not given here.
# Test system: beta-lactamase reporter cell line, FRET read-out, counterscreen
# Experiment: beta-lactamase reporter inhibitors, potency curves, dose response, counter-screen for GALR2 antagonist project, cell-based, FRET readout (AID 1238)
row,SMILES,IC50
1,CCOC(=O)N1CCN(c2ncnc3c2[nH]c2ccc(F)cc23)CC1,> 42 µM (inactive)
2,C1=C(CCNc2ncnc3c2[nH]c2ccccc23)CCCC1,> 42 µM (inactive)
3,O=C(/C=C/c1ccc(Cl)cc1)NC(=S)Nc1ccc(NC(=O)c2ccco2)cc1,> 14 µM (inactive)
4,Cc1cc(C)c(S(=O)(=O)NCc2ccncc2)c(C)c1,> 42 µM (inactive)
5,Cc1ccc2[nH]c3c(N4CCc5ccccc5C4)ncnc3c2c1,> 42 µM (inactive)
6,COc1ccc(CCNc2c(C)c(C)nc3ncnn23)cc1,> 42 µM (inactive)
7,CCOC(=O)c1ccc(N2C(=O)CC(N3CCC(O)(c4ccc(Br)cc4)CC3)C2=O)cc1 (stereo not drawn),> 42 µM (inactive)
8,CN(C(=S)NC1CCCCC1)C1(c2ccccc2Cl)CCCCC1=O (stereo not drawn),> 42 µM (inactive)
9,CCOC(=O)COc1ccc(S(=O)(=O)NCc2ccncc2)cc1,> 42 µM (inactive)
10,COc1cc(/C=C/[N+](=O)[O-])ccc1O,11.1 µM (inactive)
11,Cc1ccc(S(=O)(=O)CC2CSc3nc4ccccc4n32)cc1 (stereo not drawn),> 42 µM (inactive)
12,CC(=O)SC(C[N+](=O)[O-])c1cn(C(C)=O)c2ccccc12 (stereo not drawn),17.1 µM (inactive)
13,CN(C)c1ccc(NC2=C(Cl)C(=O)c3ccccc3C2=O)cc1,> 14 µM (inactive)
14,CC(=O)c1c(C)[nH]c(C(=O)OCCCCN2C(=O)c3ccccc3C2=O)c1C,> 42 µM (inactive)
15,CCc1ccccc1NC(=O)CN(C)C(=O)Cn1ncc(Cl)c(Cl)c1=O,17.1 µM (inactive)
16,Cc1nnc(SCC(=O)Nc2cccc(S(=O)(=O)N(C)c3ccccc3)c2)s1,> 42 µM (inactive)
17,c1cnc2c(c1)ccc1cccnc12,> 42 µM (inactive)
18,CC1CCC/C=C/C2CC(O)CC2C(O)/C=C/C(=O)O1 (stereo not drawn),> 42 µM (inactive)
19,CCCCOc1ncnc2c1[nH]c1ccc(F)cc12,> 42 µM (inactive)
20,O=C(/C=C/Sc1ncn[nH]1)c1ccc(Cl)cc1,17 µM (inactive)
21,Cc1cc(C(=O)CSc2nc3ccccc3[nH]2)c(C)n1CC1CCCO1 (stereo not drawn),> 42 µM (inactive)
22,Cn1nc(C(C)(C)C)cc1C(=O)NCc1ccc(N2CCCC2=O)cc1,> 42 µM (inactive)

row,SMILES,IC50
1,CCOC(=O)c1cc([N+](=O)[O-])c([N+](=O)[O-])cc1NC(C)=O,7.53 µM
2,CCOc1ccc(S(=O)(=O)NCc2ccncc2)cc1,> 42 µM (inactive)
3,c1ccc2c(c1)[nH]c1c(NCC3CCCO3)ncnc12 (stereo not drawn),> 42 µM (inactive)
4,CCn1c2ccc(C)cc2c2nc3cc(C(=O)O)ccc3nc21,> 42 µM (inactive)
5,COC(=O)c1ccc(COC(=O)c2[nH]c(C)c(C(C)=O)c2C)o1,> 42 µM (inactive)
6,O=[N+]([O-])c1cc(-c2ncccn2)c([N+](=O)[O-])s1,9.61 µM
7,CNc1nc2cc([N+](=O)[O-])c([N+](=O)[O-])cc2nc1NC,> 42 µM (inactive)
8,Cc1cc(Nc2cccc(Cl)c2)nc(NCc2ccccc2)n1,> 14 µM (inactive)
9,O=C(Nc1ccc2nc(-c3cccnc3)[nH]c2c1)C12CC3CC(CC(C3)C1)C2,> 42 µM (inactive)
10,Cc1nc2ccc(NC(=O)c3cc(S(=O)(=O)N(C)c4ccccc4)ccc3Cl)cc2s1,> 42 µM (inactive)
11,Cc1sc2ncnc(NCCc3ccc(S(N)(=O)=O)cc3)c2c1C,> 42 µM (inactive)
12,O=S(=O)(NCc1ccncc1)c1ccc(Br)s1,> 42 µM (inactive)
13,CC(=O)c1c(C)[nH]c(C(=O)OCC(=O)Nc2ccc(Cl)cc2[N+](=O)[O-])c1C,> 42 µM (inactive)
14,c1ccc2c(c1)OCC(CNc1ncnc3sccc13)O2 (stereo not drawn),> 42 µM (inactive)
15,Cc1cccc(C(=O)Nc2ccc(C(=O)/C=C/c3cccnc3)cc2)c1,17.9 µM (inactive)
16,CC(=O)Nc1ccccc1OCC(=O)c1cc(C)n(Cc2cccs2)c1C,> 42 µM (inactive)
17,Cc1ccc(S(=O)(=O)NCc2ccncc2)cc1,> 42 µM (inactive)
18,O=C(Cn1ncc(Cl)c(Cl)c1=O)N1CCN(S(=O)(=O)c2ccc3ccccc3c2)CC1,> 14 µM (inactive)
19,O=C(Cc1cccs1)Nc1cccc(-c2nc3cc4ccccc4cc3[nH]2)c1,> 42 µM (inactive)
20,CCCOc1ncnc2c1[nH]c1ccccc12,> 42 µM (inactive)
21,N#C/C(=C\c1cccs1)c1nc2ccccc2[nH]1,> 42 µM (inactive)
